# Results from patent US20210030005A1, “BENZOXABOROLE COMPOSITIONS HAVING A GROWTH ENHANCING EFFECT” (BORAGEN, INC., priority 2018, published 2021).
# Key:
# Assay type in all cases: in vivo
# canola seedlings = test: Soil drench treatment on canola seedlings (perlite); conditions: for Mean Stem Length: 10 days after germination, measured 10 days following drench
# Method: (§1) Sample soil drench treatments were prepared by dissolving […], 3.19 mg, or 3.99 mg of BAG8 in 67.5 mL of acetone in separate vials. Each vial was then added to 202.5 mL of water and shaken vigorously to produce a suitable sample for soil drench treatment at rates of 75 g/A, 100 g/A, and 125 g/A, respectively.
# (§2) Canola seeds were sown into pots filled with perlite growth medium and allowed to germinate under normal glass house conditions. 10 days after germination the pots were drenched with the respective BAG8 solutions. 10 days following the drench, stem lengths were measured. Analysis of variance was used to examine stem length data and means were separated using Fisher's least significant difference at α=0.05.
# snow pea = test: Soil drench growth enhancing effect, snow pea; conditions: for growth effect compared to untreated control: soil drench; for Average Dry Matter Weight / Average Root Length / Average Shoot Height: 4 treatments every 14 days, 14 days after final treatment
# Method: (§3) Boron-containing compounds/compositions were applied directly to the soil, and the growth of plants was measured. An exemplary embodiment of a benzoxaborole compound includes 5-chlorobenzo[c][1,2]oxaborol-1(3H)-ol, which may be referred to herein as BAG8.
# (§4) Eight 2-gallon pots were filled with steamed soil for each of the five treatments listed below:
# (§5) 3-4 seeds were planted into each pot at a depth of 1 inch and covered. All seedlings were subjected to 16 hours of daylight at ˜800 μmol/m^2/second (light intensity) provided by cool-white fluorescent lamps. Daytime temperatures were ˜25° C. and were dropped to ˜18° C. at night.
# (§6) Solutions were prepared by first dissolving the appropriate amount of benzoxaborole in ethanol or acetone then adding to distilled water. 100 mL of treatment was applied to each pot in a circular motion to evenly coat the surface of the soil. These treatments were applied every 14 days for a total of 4 treatments, including the at-planting treatment. Each pot was monitored, and 50 mL of distilled water was added to each pot when soil was dry.
# (§7) Germination and shoot height data were recorded every seven days. 14 days after the final treatment application, plants were carefully removed from each pot and final shoot length, root length, and dry matter weight were recorded.
# (§8) This experiment was conducted on red table beet, broccoli, snow pea, turnips, and spring wheat.
# turnips = test: Soil drench growth enhancing effect, turnip; conditions: for Average Dry Matter Weight / Average Root Length / Average Shoot Height: 4 treatments every 14 days, 14 days after final treatment
# Method: as §3, §4, §5, §6, §7, §8
# wheat seedlings = test: Soil drench treatment on wheat seedlings (perlite); conditions: for Mean Root Length: 10 days after germination, measured 10 days following drench
# Method: as §1
# as §2, with “Wheat seeds” for “Canola seeds”, “drench, root and” for “drench,”, “examine root” for “examine stem”
# soybean seedlings = test: Soil drench treatment on soybean seedlings (perlite); conditions: for Mean Root Length: 10 days after germination, measured 10 days following drench
# Method: as §1
# as §2, with “Soybean seeds” for “Canola seeds”, “drench, root” for “drench, stem”
# diseased maize = test: Field trial, yield of diseased maize
# Method: In this example, diseased maize having Southern Rust of Maize (Puccinia polysora) was treated with BAG8, Azoxystrobin, and Boscalid. Testing was performed to assess the fungicidal effect of the compounds on Southern Rust of Maize (Puccinia polysora) and to assess the growth enhancing effect of the compounds on the diseased maize.
# Maize was planted into 6×30 ft plots and replicated four times in a randomized complete block design. Three treatments and an untreated control were tested for efficacy against Southern Rust of Maize (Puccinia polysora) and assessed for yield at the conclusion of the growing season. Foliar applications of the three treatments, BAG8 at 0.25 pounds of active ingredient per acre, azoxystrobin at 0.25 pounds of active ingredient per acre, and boscalid at 0.24 pounds of active ingredient per acre, were applied to the plots at growth stage V8. Best practices were used consistently across the test plots with regard to field conditions such as fertilization, insect control, weed control, and irrigation. Disease assessments were taken in each plot 28 days after the foliar fungicide application. At maturity, each plot was harvested using standard harvesting equipment. After shelling, the kernels were weighed at 11% moisture and yield calculations extrapolated to bushels per acre.
# Analysis of variance (ANOVA) was used to examine disease severity data and means were separated using Fisher's least significant difference (LSD) method at α=0.05. […]
# [1] = treatment B, 0.12 lb/A soil drench
# [2] = treatment C, 0.25 lb/A soil drench
# [3] = treatment D, 0.35 lb/A soil drench
# [4] = treatment E, 0.60 lb/A soil drench
smiles,measurement,setting,value
"OB1OCc2cc(Cl)ccc21 [BAG8, 5-chlorobenzo[c][1,2]oxaborol-1(3H)-ol]",increased root length,"canola seedlings; all tested application rates, soil drench, canola seedlings",19-65%
same,Mean Stem Length,canola seedlings; soil drench 75 g ai/A,39.2 mm
same,Mean Stem Length,canola seedlings; soil drench 100 g ai/A,33.8 mm
same,Mean Stem Length,canola seedlings; soil drench 125 g ai/A,47.1 mm
same,growth effect compared to untreated control,snow pea; 0.25 pounds per acre,"increased the shoot height, root length, and dry matter weight"
same,growth effect compared to untreated control,snow pea; rates other than 0.25 pounds per acre,"does not increase average shoot height, average root length, or average dry matter weight"
same,Average Dry Matter Weight,snow pea; [1],102.70 mg
same,Average Root Length,snow pea; [1],7.10 cm
same,Average Shoot Height,snow pea; [1],6.90 cm
same,Average Dry Matter Weight,snow pea; [2],280.10 mg
same,Average Root Length,snow pea; [2],12.10 cm
same,Average Shoot Height,snow pea; [2],13.10 cm
same,Average Dry Matter Weight,snow pea; [3],185.70 mg
same,Average Root Length,snow pea; [3],8.00 cm
same,Average Shoot Height,snow pea; [3],9.40 cm
same,Average Dry Matter Weight,snow pea; [4],130.90 mg
same,Average Root Length,snow pea; [4],7.90 cm
same,Average Shoot Height,snow pea; [4],6.50 cm
same,growth effect compared with untreated control,"turnips; all rates (0.12-0.60 lb/A), soil drench","longer shoots, longer roots, and greater dry matter weight than the untreated control"
same,Average Dry Matter Weight,turnips; [1],6.40 mg
same,Average Root Length,turnips; [1],3.67 cm
same,Average Shoot Height,turnips; [1],1.81 cm
same,Average Dry Matter Weight,turnips; [2],7.62 mg
same,Average Root Length,turnips; [2],4.96 cm
same,Average Shoot Height,turnips; [2],2.09 cm
same,Average Dry Matter Weight,turnips; [3],7.82 mg
same,Average Root Length,turnips; [3],4.02 cm
same,Average Shoot Height,turnips; [3],2.18 cm
same,Average Dry Matter Weight,turnips; [4],6.36 mg
same,Average Root Length,turnips; [4],3.15 cm
same,Average Shoot Height,turnips; [4],2.13 cm
same,increased root length relative to untreated control,"wheat seedlings; all tested application rates, soil drench, wheat seedlings",27-45%
same,Mean Root Length,wheat seedlings; soil drench 75 g ai/A,580.4 mm
same,Mean Root Length,wheat seedlings; soil drench 100 g ai/A,524.2 mm
same,Mean Root Length,wheat seedlings; soil drench 125 g ai/A,507.0 mm
same,increased root length,"soybean seedlings; all tested application rates, soil drench, soybean seedlings (Table 12)",6-27%
same,Mean Root Length,soybean seedlings; soil drench 75 g ai/A,329.5 mm
same,Mean Root Length,soybean seedlings; soil drench 100 g ai/A,275.8 mm
same,Mean Root Length,soybean seedlings; soil drench 125 g ai/A,309.7 mm
same,increased yield relative to untreated control,diseased maize; 0.25 lb ai/A foliar,194%
same,Yield,"diseased maize; 0.25 lb ai/A foliar at V8, harvest at maturity, 11% moisture",146.2 a bu/A
